Among the test systems are OVCAR-4; SNB-75; HT-29; NCI-H522; Malme-3M; HCC 2998; SK-MEL-28; K562; HOP-62; SF-268; SR; 786-0; M14; NCI-H460; U-251; HOP-92; A498.
Holding throughout (experiment): NCI anticancer screen, dose series, 48 h

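Cells were grown in 96-well plates and exposed to each compound for 48 hours at five concentrations; endpoints were interpolated linearly between bracketing concentrations, or set to the highest concentration if not reached. GI50 is the concentration that inhibits growth by half.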 The source made the active and inactive calls. Rule as the data show it: active = GI50 up to about 1.1 µM and inactive = higher.

On to `CC1=NN(C(=O)Cc2ccccc2)C(=O)/C1=C\c1ccco1`, for which the GI50 with OVCAR-4, in the experiment on SNB-75, in the experiment on HT-29, with NCI-H522, in the experiment on Malme-3M and in the experiment on HCC 2998 was > 100 µM (inactive) throughout. For the same compound, the GI50 with SK-MEL-28, with K562, in the experiment on HOP-62, with SF-268, in the experiment on SR and in the experiment with 786-0 was > 100 µM (inactive) each time. The GI50 with M14 was > 100 µM (inactive).
Take `COc1ccc(C(=O)OCC2OC(n3cnc4c(=S)nc[nH]c43)C(OC(=O)c3ccc(OC)cc3)C2OC(=O)c2ccc(OC)cc2)cc1` (configuration not stated): the GI50 with OVCAR-4 is 7.82 µM (inactive); with NCI-H460 it was 43.1 µM (inactive); in the experiment on SNB-75, 7.52 µM (inactive); in the experiment on HT-29, 24.9 µM (inactive); in the experiment on NCI-H522, 7 µM (inactive); in the experiment with Malme-3M, 32.2 µM (inactive). For the same compound, the GI50 in the experiment with HCC 2998 was 9.35 µM (inactive); with U-251 it was > 100 µM (inactive); with SK-MEL-28, > 100 µM (inactive); with K562 it was 3.27 µM (inactive); in the experiment with HOP-62, 3.18 µM (inactive); in the experiment on SF-268, 30.1 µM (inactive). The GI50 with HOP-92 was 6.05 µM (inactive); with SR it was 14 µM (inactive); in the experiment with 786-0 it was 15.3 µM (inactive); with M14 it was 3.36 µM (inactive).
Turning to `OCC12C=CC(C1)c1ccccc12` (configuration not stated), the GI50 in the experiment with OVCAR-4, with NCI-H460, with HT-29, with Malme-3M, in the experiment with HCC 2998 and in the experiment with U-251 was > 100 µM (inactive) each time. In addition, the GI50 in the experiment on SK-MEL-28, with K562, with HOP-62, in the experiment with SF-268, with HOP-92 and in the experiment on SR was > 100 µM (inactive) in each case. The GI50 in the experiment with A498, with 786-0 and with M14 was > 100 µM (inactive) each time.
For the compound `N#CC(Nc1cccc(C(F)(F)F)c1)c1ccccc1C(F)(F)F` (configuration not stated), the GI50 in the experiment on OVCAR-4 is 5.58 µM (inactive); in the experiment with NCI-H460 it was 15.5 µM (inactive); with SNB-75 it was 18.3 µM (inactive); with HT-29 it was 13.7 µM (inactive); with NCI-H522, 6.71 µM (inactive); in the experiment with Malme-3M, 7.33 µM (inactive). Also, the GI50 in the experiment with HCC 2998 is 7.78 µM (inactive); in the experiment on U-251, 16.9 µM (inactive); with SK-MEL-28, 17.9 µM (inactive); in the experiment on K562 it was 14.5 µM (inactive); in the experiment with HOP-62, 3.52 µM (inactive); with SF-268, 17.2 µM (inactive). For the same compound, the GI50 was 4.82 µM (inactive) with SR, 19.1 µM (inactive) in the experiment with A498 and 7.29 µM (inactive) in the experiment with M14.
For the compound `CC(C)c1cccc(C(C)C)c1NC(=O)C(=O)C1CCC2=C(Sc3ccccc3N2)C1=O` (configuration not stated), the GI50 with OVCAR-4 was 95.9 µM (inactive); in the experiment with NCI-H460, > 100 µM (inactive); in the experiment on SNB-75 it was 32.3 µM (inactive); in the experiment with HT-29, 58.5 µM (inactive); in the experiment on Malme-3M, > 100 µM (inactive); with HCC 2998, > 100 µM (inactive). Also, the GI50 with U-251 was 34.8 µM (inactive); in the experiment on SK-MEL-28, > 100 µM (inactive); with K562 it was 34.9 µM (inactive); in the experiment with HOP-62 it was > 100 µM (inactive); in the experiment with SF-268, > 100 µM (inactive); in the experiment on HOP-92 it was > 100 µM (inactive). Moreover, the GI50 is > 100 µM (inactive) with SR, > 100 µM (inactive) in the experiment on A498, 65.2 µM (inactive) in the experiment with 786-0 and > 100 µM (inactive) with M14.
With `O=C1c2ccccc2C(=O)C1(O)c1c[nH]c2ccccc12`, the GI50 in the experiment on OVCAR-4, in the experiment on NCI-H460, in the experiment with SNB-75, in the experiment with HT-29, in the experiment with NCI-H522 and in the experiment on Malme-3M was > 100 µM (inactive) each time. Also, the GI50 in the experiment on U-251, in the experiment with SK-MEL-28, in the experiment on K562, with HOP-62, in the experiment on SF-268 and in the experiment with HOP-92 was > 100 µM (inactive) in each case. The GI50 with SR, with 786-0 and with M14 was > 100 µM (inactive) throughout.
On to `CC1=CCC2(C#N)CCC1C2O` (configuration not stated), for which the GI50 in the experiment with OVCAR-4, in the experiment on NCI-H460, in the experiment with SNB-75, in the experiment with HT-29, with NCI-H522 and in the experiment with Malme-3M was > 100 µM (inactive) each time. In addition, the GI50 in the experiment on HCC 2998, with U-251, with SK-MEL-28, with K562, in the experiment with HOP-62 and in the experiment on SF-268 was > 100 µM (inactive) in each case. Besides, the GI50 was > 100 µM (inactive) with SR, > 100 µM (inactive) in the experiment on A498, 64.1 µM (inactive) in the experiment with 786-0 and > 100 µM (inactive) in the experiment on M14.
`COc1cc2c(cc1OC)C(=O)Cc1ccc3c(c1CNCC2)OCO3`: the GI50 in the experiment with OVCAR-4, in the experiment on NCI-H460, with SNB-75, in the experiment with HT-29, in the experiment with NCI-H522 and in the experiment on Malme-3M was > 100 µM (inactive) each time. The GI50 in the experiment with HCC 2998, with U-251, with SK-MEL-28, with K562, in the experiment with HOP-62 and in the experiment on SF-268 was > 100 µM (inactive) in each case. The GI50 in the experiment on A498, in the experiment on 786-0 and in the experiment with M14 was > 100 µM (inactive) throughout.
As to `CC1=C(C(=O)Nc2cccc(Cl)c2)C(c2ccccc2F)C(C(=O)Nc2cccc(Cl)c2)=C(C)N1`, the GI50 with OVCAR-4 was 5.83 µM (inactive); with NCI-H460 it was 6.7 µM (inactive); in the experiment on SNB-75, 6.79 µM (inactive); in the experiment on HT-29 it was 5.43 µM (inactive); with NCI-H522, 9.16 µM (inactive); in the experiment on Malme-3M, 15.8 µM (inactive). Also, the GI50 in the experiment on HCC 2998 was 7.57 µM (inactive); with U-251 it was 12.6 µM (inactive); in the experiment with SK-MEL-28, 10.6 µM (inactive); in the experiment on K562 it was 4.79 µM (inactive); with HOP-62, 15.8 µM (inactive); in the experiment with SF-268 it was 11.8 µM (inactive). The GI50 is 1.15 µM (inactive) with HOP-92, 13.9 µM (inactive) in the experiment with A498, 13.7 µM (inactive) in the experiment on 786-0 and 5.33 µM (inactive) in the experiment on M14.
Take `CCC1(O)C[C@H]2CN(CCCc3c([nH]c4ccccc34)[C@@](C(=O)OC)(c3cc4c(cc3OC)N(C)C3[C@](O)(C(=O)OC)[C@H](OC(C)=O)[C@]5(CC)C=CCN6CC[C@]43[C@H]65)C2)C1` (some centres not stated): the GI50 is 0.353 µM (active) with OVCAR-4; 0.557 µM (active) with NCI-H460; 1.35 µM (inactive) in the experiment with SNB-75; 0.425 µM (active) in the experiment on HT-29; 0.194 µM (active) in the experiment on NCI-H522; 0.977 µM (active) in the experiment with Malme-3M. The GI50 with HCC 2998 was 1.75 µM (inactive); in the experiment on U-251, 0.565 µM (active); with SK-MEL-28 it was 3.56 µM (inactive); with K562, 0.354 µM (active); in the experiment with HOP-62 it was 0.465 µM (active); in the experiment with SF-268 it was 1.01 µM (active). The GI50 in the experiment with HOP-92 is > 10 µM (inactive); with A498, 1.21 µM (inactive); in the experiment with 786-0, 0.589 µM (active); in the experiment on M14, 0.726 µM (active).
Turning to `C=CCCC(=O)CC(=O)OCc1ccccc1`, the GI50 in the experiment with OVCAR-4 is > 100 µM (inactive); in the experiment on NCI-H460, > 100 µM (inactive); with SNB-75 it was 99.3 µM (inactive); in the experiment on HT-29, > 100 µM (inactive); in the experiment with Malme-3M, > 100 µM (inactive); in the experiment on HCC 2998, > 100 µM (inactive). The GI50 in the experiment with U-251, with K562, in the experiment on HOP-62, in the experiment with SF-268, in the experiment with HOP-92 and in the experiment on A498 was > 100 µM (inactive) each time. The GI50 in the experiment on 786-0 and in the experiment with M14 was > 100 µM (inactive) throughout.
For the compound `CC(C)[C@@H](C)CC[C@@H](C)C1CC=C2[C@@H]3CCC4C[C@@H](O[Si](C)(C)C(C)(C)C)CC[C@]4(C)C3CC[C@@]21C` (some centres not stated), the GI50 in the experiment on OVCAR-4, in the experiment with NCI-H460, with SNB-75, in the experiment with NCI-H522, in the experiment with Malme-3M and in the experiment on HCC 2998 was > 100 µM (inactive) each time. Also, the GI50 in the experiment on U-251, with SK-MEL-28, in the experiment with K562, in the experiment on HOP-62, in the experiment on SF-268 and in the experiment on SR was > 100 µM (inactive) each time. Moreover, the GI50 in the experiment on A498, in the experiment with 786-0 and with M14 was > 100 µM (inactive) each time.
Turning to `O=C(O)CSc1ccc2nc3ccccc3c(O)c2c1`, the GI50 in the experiment with OVCAR-4, in the experiment on NCI-H460, in the experiment with HT-29, with Malme-3M, in the experiment on HCC 2998 and with U-251 was > 100 µM (inactive) in each case. Further, the GI50 in the experiment on SK-MEL-28, in the experiment with K562, with HOP-62, in the experiment with SF-268, in the experiment on HOP-92 and in the experiment with SR was > 100 µM (inactive) in each case. For the same compound, the GI50 with A498, with 786-0 and in the experiment on M14 was > 100 µM (inactive) in each case.
